The values that follow come from ChEMBL document CHEMBL3745689, “Indomethacin derivatives as tubulin stabilizers to inhibit cancer cell proliferation” (Bioorg Med Chem, 2016).

Each structure is given as a SMILES string. Calls of active or inactive are those of the source. The rule behind the calls is not given here.

One assay has as its system NCI-H292. The assay is described as follows: Cytotoxicity against human NCI-H292 cells after 72 hrs by MTT assay. The class given is functional, cell-based. Particulars: NCI-H292, 72 h. A general note: Tetrazolium dyes change colour on reduction, which living cells bring about.
Assay [1] concerns the target T1, Tubulin (Bos taurus) (UniProt Q6B856+Q862L2+Q862F3). The assay is described as follows: Stabilization of bovine tubulin polymerization at 10 uM after 20 mins by spectrophotometer analysis. The class given is protein assay.
Another assay relates to HT-29. Description: Cytotoxicity against human HT-29 cells after 72 hrs by MTT assay. Format: functional, cell-based. Particulars: HT-29, 72 h.
Assay [2] in a line: Cytotoxicity against human PC3 cells after 72 hrs by MTT assay. Conditions: PC-3, 72 h. The class given is functional, cell-based.
A short description of assay [3]: Cytotoxicity against human MDA468 cells after 72 hrs by MTT assay. Format: functional, cell-based. Conditions: MDA-MB-468, 72 h.
Assay [4] has as its target T1, Tubulin (Bos taurus). The assay is described as follows: Induction of bovine tubulin polymerization at 5 uM after 20 mins by spectrophotometer analysis. The class given is protein assay.

Broadly, the IC50 is the midpoint of a concentration-inhibition curve. In the case of `Cc1c(CC(=O)NCCN(C)C)c2cc(NC(=O)OC(C)(C)C)ccc2n1S(=O)(=O)c1ccccc1`, half-maximal inhibition with NCI-H292 (IC50) was put at 25.9 µM. `Cc1c(CC(=O)NCCN(C)C)c2cc(N)ccc2n1C(=O)c1ccc(Br)cc1`: half-maximal inhibition with NCI-H292 (IC50) was put at 31.5 µM. The same measure, in the same setting: the figure for `CC(=O)Nc1ccc2c(c1)c(CC(=O)NCCN(C)C)c(C)n2C(=O)c1ccc(Br)cc1` is 67.6 µM.

The compound `Cc1c(CC(=O)NCCN(C)C)c2cc(NC(=O)C(C)C)ccc2n1S(=O)(=O)c1ccccc1` returned an IC50 with NCI-H292 of 30.9 µM. In the assay with NCI-H292, `Cc1c(CC(=O)NCCN(C)C)c2cc(NC(=O)c3ccc(C#N)cc3)ccc2n1C(=O)c1ccc(Br)cc1` yielded an IC50 of 20.8 µM. Same read-out and setting: the figure for `Cc1c(CC(=O)NCCN(C)C)c2cc(NC(=O)OC(C)(C)C)ccc2n1C(=O)c1ccc(Br)cc1` is 14.9 µM; for `CC(=O)Nc1ccc2c(c1)c(CC(=O)NCCN(C)C)c(C)n2S(=O)(=O)c1ccccc1` it is 113 µM.

Compound `CCCC(=O)Nc1ccc2c(c1)c(CC(=O)NCCN(C)C)c(C)n2S(=O)(=O)c1ccccc1` displayed an IC50 in the assay on NCI-H292 of 33.5 µM. This IC50 lies about 3.4-fold lower than the previous one. As for `Cc1c(CC(=O)NCCN(C)C)c2cc(NC(=O)c3ccc(Br)cc3)ccc2n1S(=O)(=O)c1ccccc1`, the 50% inhibitory concentration (IC50) in the assay with NCI-H292 is 55.5 µM. Against the preceding compound, the IC50 is about 1.7-fold higher.

With `CCC(=O)Nc1ccc2c(c1)c(CC(=O)NCCN(C)C)c(C)n2S(=O)(=O)c1ccccc1`, half-maximal inhibition with NCI-H292 (IC50) required 38.5 µM. The IC50 values of the last two compounds are within 1.5-fold of each other. In turn, `CCCC(=O)Nc1ccc2c(c1)c(CC(=O)NCCN(C)C)c(C)n2C(=O)c1ccc(Br)cc1` returned an IC50 with NCI-H292 of 39.6 µM. In turn, `CC(=O)O[C@H]1C(=O)[C@@]2(C)[C@H]([C@H](OC(=O)c3ccccc3)[C@]3(O)C[C@H](OC(=O)[C@H](O)[C@@H](NC(=O)c4ccccc4)c4ccccc4)C(C)=C1C3(C)C)[C@]1(OC(C)=O)CO[C@@H]1C[C@@H]2O` [PACLITAXEL] gave an IC50 in the assay with NCI-H292 of 0.006 µM. In addition, the result on Tubulin (Bos taurus) [1] was Active.

Consider `Cc1c(CC(=O)NCCN(C)C)c2cc(N)ccc2n1S(=O)(=O)c1ccccc1`, for which half-maximal inhibition in the assay with NCI-H292 (IC50) was put at 64.2 µM.

`CCC(=O)Nc1ccc2c(c1)c(CC(=O)NCCN(C)C)c(C)n2C(=O)c1ccc(Br)cc1` had an IC50 with NCI-H292 of 21.8 µM. In the case of `Cc1c(CC(=O)NCCN(C)C)c2cc(NC(=O)c3ccccc3)ccc2n1C(=O)c1ccc(Br)cc1`, the IC50 with HT-29 worked out at 6.72 µM; in assay [2] it was 13.2 µM; in the assay with NCI-H292, 13.4 µM; in assay [3], 7.67 µM. For the compound `Cc1c(CC(=O)NCCN(C)C)c2cc(NC(=O)c3cccc(OCc4ccccc4)c3)ccc2n1C(=O)c1ccc(Br)cc1`, the IC50 is 1.48 µM with HT-29, 8.8 µM in assay [2], 1.73 µM with NCI-H292 and 2.37 µM in assay [3]. Also, the outcome at Tubulin (Bos taurus) [1] and on Tubulin (Bos taurus) [4] was Active. Regarding `Cc1c(CC(=O)NCCN(C)C)c2cc(NC(=O)c3cccc(OCc4ccccc4)c3)ccc2n1S(=O)(=O)c1ccccc1`, in the assay on NCI-H292, half-maximal inhibition (IC50) was put at 19.3 µM. As to `COc1ccc(C(=O)Nc2ccc3c(c2)c(CC(=O)NCCN(C)C)c(C)n3C(=O)c2ccc(Br)cc2)cc1`, the IC50 with HT-29 was 7.19 µM; in assay [2], 10.2 µM; with NCI-H292, 13.9 µM; in assay [3] it was 8.16 µM.
